These results are taken from US20150359854A1 (HUMAN MATRIX SCIENCES, LLC, priority 2012, published 2015).

The subject of assay [1] is human aortic SMCs (AoSMCs). As to the kind of experiment: Quantitative assay of [3H]-valine-labeled insoluble elastin. The format is cell-based. As to conditions: 24-hour treatment, 0.5 to 100 nmol/L insulin. Here is the method:
Cells were plated in 35-mm dishes at a density of 100,000 cells per dish and were grown to confluency. Two microcuries [3H]-valine per milliliter fresh medium supplemented with 2% FBS was added 2 hours before the indicated treatments. At the end of each experiment, the conditioned medium was collected and subjected to immunoprecipitation using anti-tropoelastin antibody. The cell layers were washed with PBS and incubated using radioimmunoprecipitation lysis buffer for 10 minutes on ice. After centrifugation, the supernatants were collected and subjected to immunoprecipitation using anti-tropoelastin antibody. The remaining pellets containing extracellular matrix were scraped and boiled in 500 μL 0.1 N NaOH for 30 minutes to solubilize all matrix components except the cross-linked elastin. Final results (counts per minute) reflecting the total amount of [3H]-valine-labeled insoluble elastin in individual cultures were normalized per their DNA contents (assessed using the Qiagen DNEASY® (DNA isolation) Tissue Kit) and expressed as percentage of control values.

The test system of assay [2] is cultures derived from aortic adventitia, primarily fibroblasts. Nature of the assay: Elastic fiber deposition in cultures derived from aortic adventitia. It is filed as cell-based, human.
Assay [3] deals with fibronectin or collagen I. As to the kind of experiment: Immunodetection of deposited fibronectin and collagen I. The format is cell-based, human. As to conditions: insulin-treated cultures of both cell types.
For assay [4], the target named is T1, IGF-1R (Homo sapiens, UniProt P08069).
T1 construct: 30-minute treatment of cultured AoSMCs; endogenous in cells; host or cells: human aortic smooth muscle cells (AoSMCs), second passage
As to the kind of experiment: Immunoprecipitation and anti-phospho-Tyr blotting of IGF-1R. The settings on record: 30 minutes, 0.5 to 10 nmol/L insulin or 10 nmol/L IGF-1, AoSMCs. The format is cell-based.
Description: At the end of indicated treatments, the cultured cells were lysed as described, and 300 μL aliquots of cell extracts containing 300 μL proteins were incubated at 4° C. for 3 hours with the aliquots of protein G bound DYNABEADS® (Invitrogen Corp.) that were conjugated with either rabbit polyclonal anti-tropoelastin, goat polyclonal anti-Glut10, or rabbit polyclonal anti-S-Gal antibodies. The beads carrying the final immunoprecipitation products were then washed with PBS, resuspended in sample buffer, and boiled for 5 minutes. The released proteins were then resolved on SDS-PAGE gel and subjected to Western blotting using indicated antibodies.

Assay [5] deals with cdk-2. Nature of the assay: Western blotting of cdk-2 phosphorylation. It is filed as cell-based, human. As to conditions: 30-minute treatment, 10 nmol/L insulin. From the text: (§1) At the end of all treatments, cells from quadruplicate cultures in each experimental group were lysed using NP40 cell lysis buffer (Invitrogen Corp.). Thirty micrograms of protein extracts from each sample was suspended in standard sample buffer, resolved on 4% to 12% gradient SDS-PAGE gels, transferred to nitrocellulose membranes, and subjected to Western blotting using antibodies.
On the technique in general: Immunoblotting shows a protein as a band on a membrane.

The subject of assay [6] is retinoblastoma protein. Nature of the assay: Western blotting of retinoblastoma protein phosphorylation. It is filed as cell-based, human. As to conditions: 30-minute treatment, 10 nmol/L insulin.
Source text: as §1

In assay [7] the test system is FoxO1. As to the kind of experiment: FoxO1 binding to elastin gene promoter DNA probe (FRE) on DYNABEADS
It is filed as cell-based, human. On the procedure: Cells were then scraped, and their nuclear extracts were pre-pared using an isolation kit (Active Motif, Inc.). […] The equal molar amounts of both single-stranded DNA oligonucleotides were annealed in Tris-EDTA buffer (10 mmol/L Tris-HCl, 1 mmol/L EDTA (pH 8.0)) to form the double-stranded DNA probe. […] All preparations were subsequently incubated for 2 hours in 200 μL binding buffer (50 mmol/L KCl, 10% glycerol, 20 mmol/L HEPES (pH 7.9), 1 mmol/L MgCl2, 1 mmol/L DTT, 0.1 μg poly(DI-DC) (polydeoxyinosinic-deoxycytidylic), and proteinase inhibitors). After binding, the beads were washed four times in the same binding buffer, without poly(DI-DC). The bound proteins were resolved using 8% SDS-PAGE and probed using Western blotting with the anti-FoxO1 monoclonal antibody.

In assay [8] the test system is S-Gal/EBP. Nature of the assay: Association of tropoelastin with S-Gal/EBP chaperone (Western blot, co-immunoprecipitation, double immunostaining). The settings on record: 20 minutes, 10 nmol/L insulin. The format is cell-based, human. On the procedure:
Cultures fixed for 30 minutes in cold 100% methanol were then blocked with 1% glycine for 15 minutes, followed by 2% bovine serum albumin with 0.1% Triton X-100 for another hour at room temperature. They were finally exposed for 1 hour to the mixture of 5 μg/mL polyclonal anti-S-Gal/EBP and 5 μg/mL monoclonal anti-tropoelastin antibodies. All cultures were then incubated for another hour with the mixture of fluorescein-conjugated and rhodamine-conjugated secondary antibodies. Nuclei were counterstained with DAPI. At the end of all treatments, cells from quadruplicate cultures in each experimental group were lysed using NP40 cell lysis buffer (Invitrogen Corp.). Thirty micrograms of protein extracts from each sample was suspended in standard sample buffer, resolved on 4% to 12% gradient SDS-PAGE gels, transferred to nitrocellulose membranes, and subjected to Western blotting using antibodies. At the end of indicated treatments, the cultured cells were lysed as described, and 300 μL aliquots of cell extracts containing […] were incubated at 4° C. for 3 hours with the aliquots of protein G bound DYNABEADS® (Invitrogen Corp.) that were conjugated with either rabbit polyclonal anti-tropoelastin, goat polyclonal anti-Glut10, or rabbit polyclonal anti-S-Gal antibodies. The beads carrying the final immunoprecipitation products were then washed with PBS, resuspended in sample buffer, and boiled for 5 minutes. The released proteins were then resolved on SDS-PAGE gel and subjected to Western blotting using indicated antibodies.

“Also recorded” adds a separate entry of the source.

For insulin, in assay [1], the “levels of metabolically labeled insoluble elastin” value is “up-regulated”. For the same substance, the “deposition of new elastic fibers in aortic adventitia cultures” value in assay [2] (1 nmol/L insulin, primarily fibroblasts) is “stimulated deposition of new elastic fibers”. The “deposition of immunodetected elastic fibers in aortic media and adventitia cultures” value in assay [2] (48-hour treatment with 10 nmol/L insulin) was “deposit multiple immunodetected elastic fibers”. Further, the “deposition of immunodetectable fibronectin or collagen I” value in assay [3] was “did not reveal any up-regulation”. Besides, in assay [4], the “phosphorylation of IGF-1R” value was “did not affect phosphorylation”. The “phosphorylation of cdk-2 on tyrosine 160” value in assay [5] is listed as “did not induce phosphorylation”. Further, in assay [6], the “site-specific phosphorylation of retinoblastoma protein on threonine 821” value is given as “did not”. Moreover, in assay [7] (AoSMCs treated 30 minutes with 10 nmol/L insulin, or preincubated with LY294002), the “binding of FoxO1 from nuclear extracts to elastin promoter FRE DNA probe” value is listed as “could not sequester FoxO1; also recorded: could not bind FoxO1”. In assay [7] (LY294002 preincubation, consecutive insulin), the “reversal by insulin of FoxO1 binding to the probe in LY294002-treated cells” value is “could not reverse this interaction”. Also, in assay [8], the “S-Gal/EBP coimmunoprecipitated using anti-tropoelastin antibody vs untreated” value is “significantly more”; the “basic levels of intracellular S-Gal/EBP or tropoelastin (Western blot)” value is recorded as “did not demonstrate any increase; also recorded: do not demonstrate any increase”; the “co-localization of tropoelastin and S-Gal/EBP (double immunostaining)” value was “reveal co-localization”.
